The source of these data is BindingDB's records for patent US12440494 (Albert Einstein College of Medicine, 2025).

One may read the IC50 as the concentration that gives 50% inhibition.

This test concerns the target Serine/threonine-protein kinase B-raf [V600E] (Homo sapiens, UniProt P15056, V600E). The test is described as follows: Kinase Activity Assay.

Serine/threonine-protein kinase B-raf [V600E], sequence (P15056 2-766 V600E limits assumed): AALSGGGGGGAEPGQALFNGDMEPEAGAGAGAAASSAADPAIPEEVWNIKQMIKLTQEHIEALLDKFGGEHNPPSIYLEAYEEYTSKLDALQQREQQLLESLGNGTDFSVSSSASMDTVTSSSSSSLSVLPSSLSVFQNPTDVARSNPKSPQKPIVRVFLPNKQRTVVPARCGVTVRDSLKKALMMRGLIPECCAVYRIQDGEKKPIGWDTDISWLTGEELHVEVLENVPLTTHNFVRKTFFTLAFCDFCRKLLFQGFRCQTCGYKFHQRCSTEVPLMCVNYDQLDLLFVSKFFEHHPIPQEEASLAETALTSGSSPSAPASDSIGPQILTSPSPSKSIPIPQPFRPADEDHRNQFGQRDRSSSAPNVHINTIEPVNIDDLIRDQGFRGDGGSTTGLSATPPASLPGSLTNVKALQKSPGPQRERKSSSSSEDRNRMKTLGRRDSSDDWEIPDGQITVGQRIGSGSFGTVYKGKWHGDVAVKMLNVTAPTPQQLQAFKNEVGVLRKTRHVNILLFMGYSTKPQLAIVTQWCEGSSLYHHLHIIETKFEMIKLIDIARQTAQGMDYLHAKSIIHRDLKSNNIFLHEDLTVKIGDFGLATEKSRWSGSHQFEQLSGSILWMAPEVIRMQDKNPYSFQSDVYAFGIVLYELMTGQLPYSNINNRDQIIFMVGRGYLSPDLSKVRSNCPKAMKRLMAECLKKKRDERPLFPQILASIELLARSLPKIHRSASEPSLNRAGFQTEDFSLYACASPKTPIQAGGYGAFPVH
Experimental: BRAF kinase assays were performed using the Z′-LYTE™ enzymatic assay (Invitrogen, USA). […] Titrations were performed using a 1:3 dilution. Assays were performed using Select Screen (Invitrogen).

As for `COC(=O)N1CCN(CCNCc2ccc(NC(=O)c3ccc(C)c(C#Cc4cnc5cccnn45)c3)cc2C(F)(F)F)CC1` [US12440494, Compound 2], 17.8 nM corresponded to half-maximal inhibition (IC50).
